Data published in article PMC3731160 (ACS medicinal chemistry letters, 2013).
Values after ≈ are worked out from the molar mass of the structure shown. Where two headings read alike, the source gives them in different places.

Assays:
[1] = biological target: EP2 receptor (Homo sapiens, UniProt P43116); assay: PGE2-induced cAMP accumulation; format: cell-based; details: competitive antagonism of EP2
[2] = biological target: EP4 receptor (Homo sapiens, UniProt P35408); details: for inhibition of EP4 receptor: up to 40 µM, agonist saturated conditions
[3] = biological target: IP receptor (Homo sapiens, UniProt P43119); assay: cell-based
[4] = system: β2-Adrenergic receptors; assay: β2-adrenergic receptor counter assay; details: up to 40 µM, agonist saturated conditions
[5] = Aqueous solubility in PBS buffer by nephelometry; details: pH 7
[6] = Metabolic stability in pooled mouse liver microsomes; details: 1 and 10 µM
[7] = Metabolic stability in pooled human liver microsomes; details: 1 and 10 µM
[8] = Pharmacokinetics and brain permeability in female C57Bl/6 mice; details: 1h and 2h
[9] = system: P388D1 macrophages; assay: Butaprost-induced mRNA expression of inflammatory markers in P388D1 macrophages; format: cell-based

Sequence of EP4 receptor (P35408 whole entry): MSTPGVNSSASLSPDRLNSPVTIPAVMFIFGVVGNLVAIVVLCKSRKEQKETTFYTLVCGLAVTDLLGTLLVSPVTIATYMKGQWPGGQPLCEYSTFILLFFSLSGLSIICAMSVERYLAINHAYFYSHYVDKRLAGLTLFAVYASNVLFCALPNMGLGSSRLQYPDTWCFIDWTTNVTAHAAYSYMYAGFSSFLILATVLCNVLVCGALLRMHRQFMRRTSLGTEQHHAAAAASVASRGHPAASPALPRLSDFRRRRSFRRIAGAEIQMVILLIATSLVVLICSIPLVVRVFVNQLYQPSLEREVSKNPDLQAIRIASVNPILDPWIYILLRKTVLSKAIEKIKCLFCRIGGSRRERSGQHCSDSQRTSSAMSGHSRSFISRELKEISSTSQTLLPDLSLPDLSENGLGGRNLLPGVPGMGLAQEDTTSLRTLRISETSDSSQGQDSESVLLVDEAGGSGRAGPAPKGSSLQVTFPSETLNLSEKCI
Sequence of EP2 receptor (P43116 whole entry): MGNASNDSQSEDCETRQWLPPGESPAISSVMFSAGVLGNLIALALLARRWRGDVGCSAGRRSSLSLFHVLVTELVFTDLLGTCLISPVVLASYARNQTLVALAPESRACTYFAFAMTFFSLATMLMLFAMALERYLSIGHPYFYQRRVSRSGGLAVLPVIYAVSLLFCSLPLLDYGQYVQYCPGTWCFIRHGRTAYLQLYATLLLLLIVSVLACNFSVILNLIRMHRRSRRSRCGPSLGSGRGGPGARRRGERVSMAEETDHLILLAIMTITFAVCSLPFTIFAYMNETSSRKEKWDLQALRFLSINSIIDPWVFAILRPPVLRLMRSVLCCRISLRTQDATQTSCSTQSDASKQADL
Sequence of IP receptor (P43119 whole entry): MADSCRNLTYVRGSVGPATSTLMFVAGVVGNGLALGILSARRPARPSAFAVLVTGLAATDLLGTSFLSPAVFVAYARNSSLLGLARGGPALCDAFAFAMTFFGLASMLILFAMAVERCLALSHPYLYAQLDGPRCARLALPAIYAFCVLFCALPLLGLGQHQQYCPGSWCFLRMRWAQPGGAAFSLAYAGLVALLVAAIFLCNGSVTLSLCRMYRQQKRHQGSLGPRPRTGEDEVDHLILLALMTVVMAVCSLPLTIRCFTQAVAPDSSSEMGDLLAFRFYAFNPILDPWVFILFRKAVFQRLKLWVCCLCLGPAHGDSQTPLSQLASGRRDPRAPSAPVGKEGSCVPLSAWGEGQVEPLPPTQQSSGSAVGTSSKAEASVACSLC

CCc1nnc(NS(=O)(=O)c2ccc(NC(=S)NC(=O)/C=C/c3ccc(F)cc3)cc2)s1 [TG6-129, (E)-N-((4-(N-(5-ethyl-1,3,4-thiadiazol-2-yl)sulfamoyl)phenyl)carbamothioyl)-3-(4-fluorophenyl)acrylamide]
Schild regression slope [1]: 1.2 | inhibition of EP4 receptor [2]: without affecting | inhibition of EP4 receptor ([2]; listed as 1): no inhibition | Kb [3]: 199 nM | inhibition of β2-Adrenergic receptor [4]: without affecting | inhibition of β2-Adrenergic receptor ([4]; listed as 1): no inhibition | solubility [5]: 145 µM (≈ 71.3 µg/mL) | compound remaining at 60 minutes [6]: 40–60% | compound remaining at 60 minutes [7]: 40–60% | compound found in brain samples ([8]; 5mg/kg ip): no detectable amount | compound found in brain samples ([8]; 10 mg/kg oral gavage): no detectable amount

CCCC1([C@H](O)C/C=C/[C@H]2[C@H](O)CC(=O)[C@@H]2CCCCCCC(=O)OC)CCC1 [butaprost]
mRNA expression of COX-2, IL-1β, IL-6, IL-12 (p40), IL-17, IL-23, TNF-α ([9]; butaprost 10 µM, 2 h): significantly elevated | expression of EP2 receptor mRNA ([9]; butaprost, 2h): only a slight increase

COc1cc(NS(=O)(=O)c2ccc(NC(=S)NC(=O)/C=C/c3ccc(F)cc3)cc2)ncn1 [compound 6]
compound remaining at 60 minutes [6]: 40–60% | compound remaining at 60 minutes [7]: 40–60%

COc1cc(NS(=O)(=O)c2ccc(NC(=S)NC(=O)c3sc4cc(F)ccc4c3Cl)cc2)nc(OC)n1 [compound 8]
KB (µM) EP4 ([2]; Schild KB, average of 2–5 independent experiments): submicromolar
